Measured values as given in the NIST ThermoML archive (doi:10.1016/j.jct.2006.08.002).

Assay: xn = mol fraction of the nth substance listed
Settings: Fluid (supercritical or subcritical phases), Constant-volume piezometry

CCO [ethanol] + O
Settings	mass density [kg/m3]
638.15 K, 21420 kPa, x1 = 0.5	233.65
643.15 K, 35160 kPa, x1 = 0.2	451.97
648.15 K, 6600 kPa, x1 = 0.8	52.95
648.15 K, 8080 kPa, x1 = 0.5	55.72
648.15 K, 9890 kPa, x1 = 0.5	68.96
648.15 K, 11430 kPa, x1 = 0.5	84.05
648.15 K, 12050 kPa, x1 = 0.8	114.5
648.15 K, 14470 kPa, x1 = 0.5	116.92
648.15 K, 14680 kPa, x1 = 0.2	89.83
648.15 K, 17440 kPa, x1 = 0.8	187.69
648.15 K, 19110 kPa, x1 = 0.2	137.73
648.15 K, 23400 kPa, x1 = 0.2	221.13
648.15 K, 25670 kPa, x1 = 0.8	305.59
648.15 K, 25860 kPa, x1 = 0.2	285.96
648.15 K, 26120 kPa, x1 = 0.8	310.89
648.15 K, 26740 kPa, x1 = 0.2	307.52
648.15 K, 28730 kPa, x1 = 0.2	349.97
648.15 K, 31420 kPa, x1 = 0.8	365.54
648.15 K, 33230 kPa, x1 = 0.8	380.75
648.15 K, 33660 kPa, x1 = 0.2	420.24
648.15 K, 34330 kPa, x1 = 0.5	383.73
648.15 K, 36760 kPa, x1 = 0.8	403.64
648.15 K, 39020 kPa, x1 = 0.5	419.27
653.15 K, 19550 kPa, x1 = 0.2	137.7
653.15 K, 21530 kPa, x1 = 0.8	242.62
653.15 K, 22750 kPa, x1 = 0.8	259.36
653.15 K, 24460 kPa, x1 = 0.8	282.58
653.15 K, 26990 kPa, x1 = 0.8	310.81
653.15 K, 28660 kPa, x1 = 0.2	324.03
653.15 K, 34300 kPa, x1 = 0.8	380.65
653.15 K, 35620 kPa, x1 = 0.5	383.63
653.15 K, 40110 kPa, x1 = 0.5	417.48
653.15 K, 40890 kPa, x1 = 0.5	422.34
653.15 K, 44100 kPa, x1 = 0.8	437.21
653.15 K, 48080 kPa, x1 = 0.5	461.19
673.15 K, 6990 kPa, x1 = 0.8	52.89
673.15 K, 8570 kPa, x1 = 0.5	55.65
673.15 K, 10540 kPa, x1 = 0.5	68.88
673.15 K, 12250 kPa, x1 = 0.5	83.95
673.15 K, 12980 kPa, x1 = 0.2	67.32
673.15 K, 13010 kPa, x1 = 0.8	114.36
673.15 K, 15740 kPa, x1 = 0.5	116.78
673.15 K, 15940 kPa, x1 = 0.2	89.72
673.15 K, 19310 kPa, x1 = 0.8	187.46
673.15 K, 20680 kPa, x1 = 0.5	170.3
673.15 K, 21310 kPa, x1 = 0.2	137.56
673.15 K, 23620 kPa, x1 = 0.8	242.38
673.15 K, 25130 kPa, x1 = 0.8	259.1
673.15 K, 25740 kPa, x1 = 0.5	233.23
673.15 K, 27230 kPa, x1 = 0.8	282.28
673.15 K, 27430 kPa, x1 = 0.2	220.84
673.15 K, 29500 kPa, x1 = 0.8	305.19
673.15 K, 30040 kPa, x1 = 0.8	310.49
673.15 K, 30620 kPa, x1 = 0.5	292.07
673.15 K, 31230 kPa, x1 = 0.2	285.57
673.15 K, 32510 kPa, x1 = 0.2	307.09
673.15 K, 33730 kPa, x1 = 0.2	323.66
673.15 K, 34050 kPa, x1 = 0.5	325.37
673.15 K, 35510 kPa, x1 = 0.2	349.48
673.15 K, 36420 kPa, x1 = 0.8	365.05
673.15 K, 38700 kPa, x1 = 0.8	380.23
673.15 K, 40850 kPa, x1 = 0.5	383.2
673.15 K, 42660 kPa, x1 = 0.2	420.24
673.15 K, 42950 kPa, x1 = 0.8	403.08
673.15 K, 46620 kPa, x1 = 0.5	418.66
673.15 K, 47140 kPa, x1 = 0.2	451.15
